Data published in ChEMBL document CHEMBL5046233, “Nitroxoline and its derivatives are potent inhibitors of metallo-β-lactamases” (Eur J Med Chem, 2022).
≈ marks a conversion by molar mass, not a printed value.

Tests used:
[1] = Inhibition of recombinant NDM-1 (unknown origin) using fluorocillin as substrate at 3 uM incubated for 30 mins by fluorescence based assay; conditions: Bacteria
[2] = Inhibition of recombinant NDM-1 (unknown origin) using fluorocillin as substrate at 10 uM incubated for 30 mins by fluorescence based assay; conditions: Bacteria
[3] = Inhibition of recombinant NDM-1 (unknown origin) using fluorocillin as substrate at 30 uM incubated for 30 mins by fluorescence based assay; conditions: Bacteria
[4] = test system: Bacteria; assay: Inhibition of recombinant VIM-1 (unknown origin) using fluorocillin as substrate at 10 uM incubated for 30 mins by fluorescence based assay
[5] = test system: Bacteria; assay: Inhibition of recombinant VIM-1 (unknown origin) using fluorocillin as substrate at 30 uM incubated for 30 mins by fluorescence based assay
[6] = test system: Bacteria; assay: Inhibition of recombinant IMP-1 (unknown origin) using fluorocillin as substrate at 3 uM incubated for 30 mins by fluorescence based assay
[7] = test system: Bacteria; assay: Inhibition of recombinant VIM-1 (unknown origin) using fluorocillin as substrate at 3 uM incubated for 30 mins by fluorescence based assay
[8] = test system: Bacteria; assay: Inhibition of recombinant IMP-1 (unknown origin) using fluorocillin as substrate at 30 uM incubated for 30 mins by fluorescence based assay
[9] = test system: Bacteria; assay: Inhibition of recombinant IMP-1 (unknown origin) using fluorocillin as substrate at 10 uM incubated for 30 mins by fluorescence based assay
[10] = test system: Escherichia coli; assay: Antimicrobial activity against Escherichia coli clinical isolate T2228 expressing VIM-1 assessed as inhibition of bacterial growth by CLSI protocol based broth microdilution assay; format: functional
[11] = test system: Klebsiella pneumoniae; assay: Antimicrobial activity against Klebsiella pneumoniae clinical isolate T2301 expressing NDM-1 assessed as inhibition of bacterial growth by CLSI protocol based broth microdilution assay; format: functional

Structure (SMILES) | inhibition [1] [%] | inhibition [2] [%] | inhibition [3] [%] | inhibition [4] [%] | inhibition [5] [%] | inhibition [6] [%] | inhibition [7] [%] | inhibition [8] [%] | inhibition [9] [%] | MIC [10] [µg/mL] | MIC [11] [µg/mL]
O=C(O)CN(CCN(CC(=O)O)CC(=O)O)CC(=O)O | 84 | 87 | 87 |  |  |  |  |  |  |  | 
CN(CC#N)C(=O)c1ccc2c([N+](=O)[O-])ccc(O)c2n1 | < 20 | < 20 | < 20 |  |  |  |  |  |  |  | 
O=C(O)COc1cccc2cccnc12 | < 20 | < 20 | < 20 |  |  |  |  |  |  |  | 
Nc1ccc2c([N+](=O)[O-])ccc(O)c2n1 | < 20 | 46 | 93 | 37 | 72 | < 20 | 20 | 74 | 38 |  | 
N#CCNC(=O)c1ccc2cccc(O)c2n1 | < 20 | < 20 | < 20 |  |  |  |  |  |  |  | 
CCN1CCN(C(=O)N[C@@H](C(=O)N[C@@H]2C(=O)N3[C@@H]2SC(C)(C)[C@@H]3C(=O)O)c2ccccc2)C(=O)C1=O [PIPERACILLIN] |  |  |  |  |  |  |  |  |  | 1.02 (≈ 1.98 µM) | 4.1 (≈ 7.91 µM)
N#CCNC(=O)c1ccc2c([N+](=O)[O-])ccc(O)c2n1 | < 20 | < 20 | < 20 |  |  |  |  |  |  |  | 
CC(C)(O/N=C(\C(=O)N[C@@H]1C(=O)N2C(C(=O)[O-])=C(C[n+]3ccccc3)CS[C@H]12)c1csc(N)n1)C(=O)O [CEFTAZIDIME] |  |  |  |  |  |  |  |  |  | 0.256 (≈ 0.468 µM) | 4.1 (≈ 7.49 µM)
CN(C)Cc1ccc2c(Cl)cc(Cl)c(O)c2n1 | < 20 | < 20 | 69 |  |  |  |  |  |  |  | 
N#CCN(Cc1ccccc1)C(=O)c1ccc2cccc(O)c2n1 | < 20 | < 20 | < 20 |  |  |  |  |  |  |  | 
CC(=O)Nc1ccc([N+](=O)[O-])c2cccnc12 | < 20 | < 20 | < 20 |  |  |  |  |  |  |  | 
Nc1c([N+](=O)[O-])cc([N+](=O)[O-])c2cccnc12 | < 20 | < 20 | < 20 |  |  |  |  |  |  |  | 
NC(=O)c1ccc([N+](=O)[O-])c2cccnc12 | < 20 | < 20 | < 20 |  |  |  |  |  |  |  | 
Oc1ccc2cccc(O)c2n1 | < 20 | < 20 | < 20 |  |  |  |  |  |  |  | 
O=[N+]([O-])c1ccc(O)c2ccccc12 | < 20 | < 20 | < 20 |  |  |  |  |  |  |  | 
CN(CC#N)C(=O)c1ccc2cccc(O)c2n1 | < 20 | < 20 | < 20 |  |  |  |  |  |  |  | 
N#CC1(NC(=O)c2cc([N+](=O)[O-])c3cccnc3c2O)CC1 | < 20 | < 20 | < 20 |  |  |  |  |  |  |  | 
O=C(O)c1ccc2c([N+](=O)[O-])ccc(O)c2n1 | 20 | 95 | 100 | 99 | 99 | 74 | 70 | 99 | 96 |  | 
Cc1ccc2c([N+](=O)[O-])cc([N+](=O)[O-])c(O)c2n1 | < 20 | < 20 | < 20 |  |  |  |  |  |  |  | 
N#CCNCc1cc([N+](=O)[O-])c2cccnc2c1O | 64 | 89 | 98 | 99 | 99 | 43 | 95 | 96 | 91 |  | 

Structure (SMILES) | inhibition [1] [%] | inhibition [2] [%] | inhibition [3] [%] | inhibition [4] [%] | inhibition [5] [%] | inhibition [6] [%] | inhibition [7] [%] | inhibition [8] [%] | inhibition [9] [%] | MIC [10] [µg/mL] | MIC [11] [µg/mL]
CO/N=C(\C(=O)N[C@@H]1C(=O)N2C(C(=O)O)=C(COC(N)=O)CS[C@H]12)c1ccco1 [CEFUROXIME] |  |  |  |  |  |  |  |  |  | 1.02 (≈ 2.41 µM) | 8.19 (≈ 19.3 µM)
Oc1ccc(F)c2cccnc12 | < 20 | < 20 | < 20 |  |  |  |  |  |  |  | 
N#CC1(NC(=O)c2ccc3c([N+](=O)[O-])ccc(O)c3n2)CC1 | < 20 | < 20 | < 20 |  |  |  |  |  |  |  | 
N#Cc1ccc2ccc([N+](=O)[O-])c(O)c2n1 | < 20 | < 20 | < 20 |  |  |  |  |  |  |  | 
O=[N+]([O-])c1cc(CNCc2ccccc2)c(O)c2ncccc12 | < 20 | 23 | 76 |  |  |  |  |  |  |  | 
N#Cc1ccc2cccc(O)c2n1 | < 20 | < 20 | < 20 |  |  |  |  |  |  |  | 
Cc1ccc2cccc(O)c2n1 | < 20 | < 20 | < 20 |  |  |  |  |  |  |  | 
CCNCc1cc([N+](=O)[O-])c2cccnc2c1O | < 20 | 40 | 88 | 53 | 98 | < 20 | < 20 | 92 | 53 |  | 
O=C(O)c1ccc2c([N+](=O)[O-])cc([N+](=O)[O-])c(O)c2n1 | < 20 | 90 | 96 | 57 | 86 | < 20 | 34 | 91 | 47 |  | 
Cc1cc(C)c2cccnc2c1O | < 20 | < 20 | < 20 |  |  |  |  |  |  |  | 
Cc1ccc2c(Cl)cc(Cl)c(O)c2n1 | < 20 | 71 | 91 | 58 | 84 | 22 | 20 | 92 | 73 |  | 
O=C(O)c1ccc2cccc(O)c2n1 | 24 | 97 | 100 | 54 | 91 | 27 | 32 | 95 | 72 |  | 
Oc1c(Cl)cc(Cl)c2cccnc12 | < 20 | 98 | 99 | 90 | 97 | 34 | 23 | 97 | 95 |  | 
CN(CC#N)Cc1cc([N+](=O)[O-])c2cccnc2c1O | < 20 | < 20 | 82 |  |  |  |  |  |  |  | 
CN(CC#N)Cc1ccc2c([N+](=O)[O-])ccc(O)c2n1 | < 20 | 47 | 93 | 53 | 92 | < 20 | 23 | 78 | 38 |  | 
Oc1ccc(Cl)c2cccnc12 | < 20 | < 20 | 60 |  |  |  |  |  |  |  | 
Nc1c(O)cc(S(=O)(=O)O)c2ccccc12 | < 20 | < 20 | < 20 |  |  |  |  |  |  |  | 
O=C(O)c1ccc([N+](=O)[O-])c2cccnc12 | < 20 | < 20 | < 20 |  |  |  |  |  |  |  | 
O=C(O)c1cc([N+](=O)[O-])c2cccnc2c1O | < 20 | < 20 | < 20 |  |  |  |  |  |  |  | 
O=C(O)C[C@H](NCCN[C@@H](CC(=O)O)C(=O)O)C(=O)O | 84 | 84 | 86 |  |  |  |  |  |  |  | 

Structure (SMILES) | inhibition [1] [%] | inhibition [2] [%] | inhibition [3] [%] | inhibition [4] [%] | inhibition [5] [%] | inhibition [6] [%] | inhibition [7] [%] | inhibition [8] [%] | inhibition [9] [%] | MIC [10] [µg/mL] | MIC [11] [µg/mL]
O=[N+]([O-])c1cc([N+](=O)[O-])c2cccnc2c1O | < 20 | < 20 | < 20 |  |  |  |  |  |  |  | 
N#CCN(Cc1ccccc1)C(=O)c1ccc2c([N+](=O)[O-])cc([N+](=O)[O-])c(O)c2n1 | < 20 | < 20 | < 20 |  |  |  |  |  |  |  | 
O=C(O)c1ccc(O)c2ncccc12 | < 20 | < 20 | 39 |  |  |  |  |  |  |  | 
O=S(=O)(O)c1ccc(O)c2ncccc12 | < 20 | < 20 | 67 |  |  |  |  |  |  |  | 
CN(C)Cc1ccc2c([N+](=O)[O-])ccc(O)c2n1 | < 20 | < 20 | < 20 |  |  |  |  |  |  |  | 
O=[N+]([O-])c1cc(O)c2ncccc2c1 | < 20 | < 20 | 95 |  |  |  |  |  |  |  | 
O=C(c1cc([N+](=O)[O-])c2cccnc2c1O)N1CCOCC1 | < 20 | < 20 | 16 |  |  |  |  |  |  |  | 
Cc1ccc2c([N+](=O)[O-])ccc(O)c2n1 | < 20 | < 20 | 35 |  |  |  |  |  |  |  | 
CN(CC#N)C(=O)c1ccc2c([N+](=O)[O-])cc([N+](=O)[O-])c(O)c2n1 | < 20 | < 20 | < 20 |  |  |  |  |  |  |  | 
N#Cc1ccc2c([N+](=O)[O-])cc([N+](=O)[O-])c(O)c2n1 | < 20 | < 20 | < 20 |  |  |  |  |  |  |  | 
O=S(=O)(O)c1ccc(O)c2ccccc12 | < 20 | < 20 | < 20 |  |  |  |  |  |  |  | 
c1cnc2c(c1)ccc1cccnc12 | < 20 | < 20 | 68 |  |  |  |  |  |  |  | 
Nc1ccc2cccc(O)c2n1 | < 20 | < 20 | < 20 |  |  |  |  |  |  |  | 
N#CCOc1ccc([N+](=O)[O-])c2cccnc12 | < 20 | < 20 | < 20 |  |  |  |  |  |  |  | 
Oc1ccc(C(F)(F)F)c2cccnc12 | 13 | < 20 | < 20 |  |  |  |  |  |  |  | 
N#CCN(Cc1ccccc1)C(=O)c1ccc2c([N+](=O)[O-])ccc(O)c2n1 | < 20 | < 20 | < 20 |  |  |  |  |  |  |  | 
O=C(O)c1cc(O)c2ncccc2c1 | < 20 | < 20 | < 20 |  |  |  |  |  |  |  | 
O=[N+]([O-])c1ccc(N2CCCC2)c2ncccc12 | < 20 | < 20 | < 20 |  |  |  |  |  |  |  | 
